# Legend:
# Assay type in all cases: biochemical
# Details in all cases: 300-350 nM
# ABL1 = ABL1 (Homo sapiens (Human), UniProt P00519); experiment: SelectScreen Kinase Profiling: ABL1
# Text: (§1) Table 2 below highlights the selectivity of a representative compound of the invention against a panel of 50 kinases (assessed using the Invitrogen SelectScreen® Kinase Profiling Service).
# AMPK A1/B1/G1 = AMPK A1/B1/G1 (Homo sapiens (Human), UniProt Q13131); experiment: SelectScreen Kinase Profiling: AMPK
# Text: as §1
# CSNK1G2 (CK1 gamma 2) = CSNK1G2 (CK1 gamma 2) (Homo sapiens (Human), UniProt P78368); experiment: SelectScreen Kinase Profiling: CSNK1G2
# Text: as §1
# FGFR1 = FGFR1 (Homo sapiens (Human), UniProt P11362); experiment: SelectScreen Kinase Profiling: FGFR1
# Text: as §1
# FLT3 = FLT3 (Homo sapiens (Human), UniProt P36888); experiment: SelectScreen Kinase Profiling: FLT3
# Text: as §1
# FRAP1 (mTOR) = FRAP1 (mTOR) (Homo sapiens (Human), UniProt P42345); experiment: SelectScreen Kinase Profiling: FRAP1
# Text: as §1
# INSR = INSR (Homo sapiens (Human), UniProt P06213); experiment: SelectScreen Kinase Profiling: INSR
# Text: as §1
# MAP2K1 (MEK1) = MAP2K1 (MEK1) (Homo sapiens (Human), UniProt Q02750); experiment: SelectScreen Kinase Profiling: MAP2K1
# Text: as §1
# MAP4K4 (HGK) = MAP4K4 (HGK) (Homo sapiens (Human), UniProt O95819); experiment: SelectScreen Kinase Profiling: MAP4K4
# Text: as §1
# MAPK1 (ERK2) = MAPK1 (ERK2) (Homo sapiens (Human), UniProt P28482); experiment: SelectScreen Kinase Profiling: MAPK1
# Text: as §1
# MAPK8 (JNK1) = MAPK8 (JNK1) (Homo sapiens (Human), UniProt P45983); experiment: SelectScreen Kinase Profiling: MAPK8
# Text: as §1
# MAPKAPK2 = MAPKAPK2 (Homo sapiens (Human), UniProt P49137); experiment: SelectScreen Kinase Profiling: MAPKAPK2
# Text: as §1
# NTRK1 (TRKA) = NTRK1 (TRKA) (Homo sapiens (Human), UniProt P04629); experiment: SelectScreen Kinase Profiling: NTRK1
# Text: as §1
# RPS6KA3 (RSK2) = RPS6KA3 (RSK2) (Homo sapiens (Human), UniProt P51812); experiment: SelectScreen Kinase Profiling: RPS6KA3
# RPS6KB1 (p70S6K) = RPS6KB1 (p70S6K) (Homo sapiens (Human), UniProt P23443); experiment: SelectScreen Kinase Profiling: RPS6KB1
# Text: as §1
# Chain of MAPK1 (ERK2) (P28482 whole entry): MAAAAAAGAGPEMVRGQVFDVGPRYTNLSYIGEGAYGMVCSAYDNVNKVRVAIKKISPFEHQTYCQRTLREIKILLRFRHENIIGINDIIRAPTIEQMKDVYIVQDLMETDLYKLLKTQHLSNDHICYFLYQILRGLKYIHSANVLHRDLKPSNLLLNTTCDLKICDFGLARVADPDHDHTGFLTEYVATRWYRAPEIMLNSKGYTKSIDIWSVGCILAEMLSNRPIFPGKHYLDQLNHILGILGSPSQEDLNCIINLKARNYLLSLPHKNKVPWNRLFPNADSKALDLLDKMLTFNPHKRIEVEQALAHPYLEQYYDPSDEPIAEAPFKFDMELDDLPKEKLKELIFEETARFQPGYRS
# Chain of ABL1 (P00519 whole entry): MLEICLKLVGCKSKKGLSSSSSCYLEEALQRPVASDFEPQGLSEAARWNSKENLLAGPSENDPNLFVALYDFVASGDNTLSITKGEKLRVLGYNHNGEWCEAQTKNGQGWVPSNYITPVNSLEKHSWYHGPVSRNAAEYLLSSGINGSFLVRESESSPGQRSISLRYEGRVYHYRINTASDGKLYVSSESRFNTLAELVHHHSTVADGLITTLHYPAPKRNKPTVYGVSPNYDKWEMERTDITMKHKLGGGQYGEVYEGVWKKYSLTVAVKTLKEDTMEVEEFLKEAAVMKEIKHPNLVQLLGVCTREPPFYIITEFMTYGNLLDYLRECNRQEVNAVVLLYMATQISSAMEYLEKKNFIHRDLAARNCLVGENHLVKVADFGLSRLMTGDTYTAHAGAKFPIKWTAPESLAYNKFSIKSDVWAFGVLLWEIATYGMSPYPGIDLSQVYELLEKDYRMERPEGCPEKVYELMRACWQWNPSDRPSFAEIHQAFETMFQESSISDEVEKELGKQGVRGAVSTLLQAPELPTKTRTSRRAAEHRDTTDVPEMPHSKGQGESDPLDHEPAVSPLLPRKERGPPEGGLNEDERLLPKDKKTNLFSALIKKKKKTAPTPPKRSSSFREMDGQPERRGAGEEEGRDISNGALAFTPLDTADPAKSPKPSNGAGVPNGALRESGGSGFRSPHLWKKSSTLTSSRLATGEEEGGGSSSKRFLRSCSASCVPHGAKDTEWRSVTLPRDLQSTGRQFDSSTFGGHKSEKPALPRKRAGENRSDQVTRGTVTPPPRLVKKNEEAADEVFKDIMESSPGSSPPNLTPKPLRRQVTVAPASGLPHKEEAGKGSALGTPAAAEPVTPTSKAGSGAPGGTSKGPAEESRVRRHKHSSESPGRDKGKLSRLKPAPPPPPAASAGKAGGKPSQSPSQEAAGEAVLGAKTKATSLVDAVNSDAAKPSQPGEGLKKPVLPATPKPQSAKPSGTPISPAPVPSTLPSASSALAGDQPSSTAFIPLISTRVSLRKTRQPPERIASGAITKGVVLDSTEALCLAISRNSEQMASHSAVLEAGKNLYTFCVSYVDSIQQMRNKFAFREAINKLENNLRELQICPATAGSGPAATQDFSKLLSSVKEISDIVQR
# Chain of RPS6KA3 (RSK2) (P51812 whole entry): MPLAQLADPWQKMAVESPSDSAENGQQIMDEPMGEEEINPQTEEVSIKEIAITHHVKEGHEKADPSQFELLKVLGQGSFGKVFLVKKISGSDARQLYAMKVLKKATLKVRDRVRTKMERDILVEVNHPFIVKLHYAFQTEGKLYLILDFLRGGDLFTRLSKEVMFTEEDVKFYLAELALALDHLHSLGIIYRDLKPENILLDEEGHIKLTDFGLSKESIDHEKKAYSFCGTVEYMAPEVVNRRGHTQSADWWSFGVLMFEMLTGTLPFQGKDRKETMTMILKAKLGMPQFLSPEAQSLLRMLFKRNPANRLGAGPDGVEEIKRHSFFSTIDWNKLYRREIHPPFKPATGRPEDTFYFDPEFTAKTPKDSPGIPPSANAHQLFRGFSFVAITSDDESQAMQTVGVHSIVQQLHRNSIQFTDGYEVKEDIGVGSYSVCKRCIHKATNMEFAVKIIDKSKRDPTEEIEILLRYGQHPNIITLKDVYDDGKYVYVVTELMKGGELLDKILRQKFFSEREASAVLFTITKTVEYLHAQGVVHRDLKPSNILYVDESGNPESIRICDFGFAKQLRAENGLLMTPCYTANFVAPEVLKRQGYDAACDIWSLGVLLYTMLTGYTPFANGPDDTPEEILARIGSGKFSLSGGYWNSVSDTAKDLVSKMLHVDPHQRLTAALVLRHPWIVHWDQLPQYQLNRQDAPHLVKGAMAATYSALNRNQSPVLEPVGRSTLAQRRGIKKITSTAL
# Chain of NTRK1 (TRKA) (P04629 33-796): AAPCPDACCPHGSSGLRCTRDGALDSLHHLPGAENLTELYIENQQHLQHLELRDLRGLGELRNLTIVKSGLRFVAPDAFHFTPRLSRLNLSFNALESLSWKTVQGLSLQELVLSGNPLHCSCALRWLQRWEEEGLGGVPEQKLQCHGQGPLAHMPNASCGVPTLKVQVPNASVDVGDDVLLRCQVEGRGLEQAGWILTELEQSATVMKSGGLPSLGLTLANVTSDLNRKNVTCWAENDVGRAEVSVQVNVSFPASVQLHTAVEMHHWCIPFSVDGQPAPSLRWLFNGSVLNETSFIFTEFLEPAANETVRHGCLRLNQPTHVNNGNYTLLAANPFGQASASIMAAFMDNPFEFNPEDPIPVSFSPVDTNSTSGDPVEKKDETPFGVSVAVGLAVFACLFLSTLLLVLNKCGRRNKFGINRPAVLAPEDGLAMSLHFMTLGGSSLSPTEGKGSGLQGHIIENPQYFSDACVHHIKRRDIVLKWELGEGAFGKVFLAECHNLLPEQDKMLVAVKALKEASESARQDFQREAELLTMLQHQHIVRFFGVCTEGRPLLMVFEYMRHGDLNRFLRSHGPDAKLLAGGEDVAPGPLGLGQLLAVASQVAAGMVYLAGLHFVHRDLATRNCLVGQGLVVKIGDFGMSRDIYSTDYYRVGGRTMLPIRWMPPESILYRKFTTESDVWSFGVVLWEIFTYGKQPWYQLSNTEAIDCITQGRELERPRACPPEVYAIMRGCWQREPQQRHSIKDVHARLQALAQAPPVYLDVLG
# Chain of CSNK1G2 (CK1 gamma 2) (P78368 whole entry): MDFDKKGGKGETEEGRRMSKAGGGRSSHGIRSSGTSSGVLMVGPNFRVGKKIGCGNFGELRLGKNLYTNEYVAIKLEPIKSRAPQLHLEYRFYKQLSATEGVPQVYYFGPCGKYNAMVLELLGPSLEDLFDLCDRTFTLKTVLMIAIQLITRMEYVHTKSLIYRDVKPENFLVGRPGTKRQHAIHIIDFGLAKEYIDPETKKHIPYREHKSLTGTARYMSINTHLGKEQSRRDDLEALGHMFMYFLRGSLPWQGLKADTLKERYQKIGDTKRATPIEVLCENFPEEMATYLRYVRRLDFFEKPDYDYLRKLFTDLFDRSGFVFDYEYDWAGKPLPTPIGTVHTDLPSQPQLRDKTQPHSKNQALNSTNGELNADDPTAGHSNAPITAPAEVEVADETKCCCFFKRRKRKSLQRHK
# Chain of INSR (P06213 28-1382): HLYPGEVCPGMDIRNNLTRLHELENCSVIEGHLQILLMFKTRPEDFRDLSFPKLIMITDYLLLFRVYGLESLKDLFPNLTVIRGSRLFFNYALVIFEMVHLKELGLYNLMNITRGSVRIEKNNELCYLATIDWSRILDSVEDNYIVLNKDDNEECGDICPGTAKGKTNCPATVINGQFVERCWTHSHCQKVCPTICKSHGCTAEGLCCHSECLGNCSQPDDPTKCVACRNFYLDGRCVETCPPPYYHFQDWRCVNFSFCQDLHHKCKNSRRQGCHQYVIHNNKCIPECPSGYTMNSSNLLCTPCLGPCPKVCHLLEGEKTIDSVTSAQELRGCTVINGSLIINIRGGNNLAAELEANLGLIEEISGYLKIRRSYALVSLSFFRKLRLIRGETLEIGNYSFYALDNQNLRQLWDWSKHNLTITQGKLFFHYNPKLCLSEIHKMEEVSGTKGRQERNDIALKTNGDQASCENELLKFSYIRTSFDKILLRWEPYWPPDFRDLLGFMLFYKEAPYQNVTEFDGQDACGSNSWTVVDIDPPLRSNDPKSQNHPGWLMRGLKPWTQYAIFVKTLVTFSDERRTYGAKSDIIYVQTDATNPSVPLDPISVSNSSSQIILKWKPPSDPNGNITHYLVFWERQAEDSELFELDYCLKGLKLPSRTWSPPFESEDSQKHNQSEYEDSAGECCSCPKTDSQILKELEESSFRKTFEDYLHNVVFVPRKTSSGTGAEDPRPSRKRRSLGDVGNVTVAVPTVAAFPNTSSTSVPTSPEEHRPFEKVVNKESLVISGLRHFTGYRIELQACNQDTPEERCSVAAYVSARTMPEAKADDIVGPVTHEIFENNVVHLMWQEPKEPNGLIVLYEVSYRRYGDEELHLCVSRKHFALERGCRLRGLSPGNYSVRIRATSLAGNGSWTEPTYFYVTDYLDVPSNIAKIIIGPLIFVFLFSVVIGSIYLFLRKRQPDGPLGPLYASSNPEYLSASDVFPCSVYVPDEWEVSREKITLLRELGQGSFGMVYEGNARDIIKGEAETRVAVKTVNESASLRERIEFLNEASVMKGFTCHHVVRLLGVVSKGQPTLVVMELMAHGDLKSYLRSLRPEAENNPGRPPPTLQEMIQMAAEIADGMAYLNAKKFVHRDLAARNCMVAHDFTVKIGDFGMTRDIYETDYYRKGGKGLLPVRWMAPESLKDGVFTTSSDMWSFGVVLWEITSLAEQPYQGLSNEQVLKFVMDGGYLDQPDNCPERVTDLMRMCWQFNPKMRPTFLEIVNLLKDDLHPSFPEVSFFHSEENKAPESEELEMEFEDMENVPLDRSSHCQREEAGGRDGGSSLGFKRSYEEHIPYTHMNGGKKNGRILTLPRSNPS
compound,measurement,setting,value
"O=c1c2cnc(Nc3ccc(N4CCNCC4)cc3)nc2ccn1-c1c(Cl)cccc1Cl [Example 1, 6-(2,6-Dichlorophenyl)-2-((4-(piperazin-1-yl)phenyl)amino)pyrido[4,3-d]pyrimidin-5(6H)-one]",Inhibition ABL1,ABL1,+ (Inhibition >75% at 300-350 nM)
same,Inhibition AMPK A1/B1/G1,AMPK A1/B1/G1,− (Inhibition <75% @ 300-350 nM)
same,Inhibition CSNK1G2 (CK1 gamma 2),CSNK1G2 (CK1 gamma 2),− (Inhibition <75% @ 300-350 nM)
same,Inhibition FGFR1,FGFR1,− (Inhibition <75% @ 300-350 nM)
same,Inhibition FLT3,FLT3,− (Inhibition <75% @ 300-350 nM)
same,Inhibition FRAP1 (mTOR),FRAP1 (mTOR),− (Inhibition <75% @ 300-350 nM)
same,Inhibition INSR,INSR,− (Inhibition <75% @ 300-350 nM)
same,Inhibition MAP2K1 (MEK1),MAP2K1 (MEK1),− (Inhibition <75% @ 300-350 nM)
same,Inhibition MAP4K4 (HGK),MAP4K4 (HGK),− (Inhibition <75% @ 300-350 nM)
same,Inhibition MAPK1 (ERK2),MAPK1 (ERK2),− (Inhibition <75% @ 300-350 nM)
same,Inhibition MAPK8 (JNK1),MAPK8 (JNK1),− (Inhibition <75% @ 300-350 nM)
same,Inhibition MAPKAPK2,MAPKAPK2,− (Inhibition <75% @ 300-350 nM)
same,Inhibition NTRK1 (TRKA),NTRK1 (TRKA),− (Inhibition <75% @ 300-350 nM)
same,Inhibition RPS6KA3 (RSK2),RPS6KA3 (RSK2),− (Inhibition <75% @ 300-350 nM)
same,Inhibition RPS6KB1 (p70S6K),RPS6KB1 (p70S6K),− (Inhibition <75% @ 300-350 nM)

# — US9714244B2, “Substituted pyrido[4,3-d]pyrimidines as Wee-1 inhibitors” (ALMAC DISCOVERY LIMITED, priority 2013, dated 2017)
